Biological target: T1, PfK5ΔL6-MD (Plasmodium falciparum, UniProt O77382, DEL175-269)
T1 construct: gene PF3D7_0317500
Settings: read-out: KATP; 1 μM GMPCPP-stabilised Sus scrofa microtubules; 50 mM Tris-HCl pH 8, KCl, 2 mM MgCl2, 2 mM DTT; 26 °C

## Nc1ncnc2c1ncn2[C@@H]1O[C@H](COP(=O)(O)OP(=O)(O)OP(=O)(O)O)[C@@H](O)[C@H]1O [ATP]
  Km: 9.5 µM

Source: PMC8526983 (The Journal of Biological Chemistry, 2021)
